What was measured:
[1] = tested on: GLI1 mRNA expression; test: RT-qPCR GLI1 mRNA expression in OHCs-stimulated C3H10T1/2 MEFs; type: cell-based, mouse; settings: for % Gli1 Expression: C3H10T1/2 MEFs, 10 μM, relative to Hh-agonist OHCs (set as 100%)
Description: (§1) ASZ001 and Sufu-KO cells were seeded in 96-well plates (10,000/well, 100 μL) and incubated overnight under growth conditions. On the second day, ‘growth’ media was removed and replaced by ‘assay’ media (100 μL). On the third day, cells were treated with a serial dilution of drugs or DMSO for 48 h. mRNA expression was determined through Taqman Fast Cells-to-CT Kit (#4399003) per the manufacturer's instructions. In brief, cells were washed with chilled PBS, then mixed with lysis solution containing DNase I and incubated at RT for 5 min. Stop solution was then added to quench the lysis reagents. cDNA was then synthesized through a BioRad MyCycler following addition of reverse transcriptase. Finally, the cDNA was amplified through an ABI 7500 system following addition of Taqman Fast Universal PCR Master Mix and Taqman Gene Expression Primer. Relative gene expression levels were computed by the ΔΔCt method. Values represent mRNA expression relative to DMSO control (set at 1.0). Data were analyzed using GraphPad Prism, and IC50 values are the mean±SEM for at least two separate experiments performed in triplicate. Primers used are as follows: mouse ActB (Mm00607939_s1); mouse GLI1 (Mm00494645_ml); mouse Gli2 (Mm01293117_ml); mouse Ptch1 (Mm00436026_ml); mouse Hhip (Mm00469580_ml).
C3H10T1/2 MEFs were seeded in 24-well plates (50,000/well, 500 μL). Following 24 h incubation, the ‘growth’ media was removed and replaced with ‘assay’ media (500 μL). On the third day, cells were treated with either DMSO, OHCs, or OHCs+drugs. Following a 24 h incubation, gene expression analysis was carried out following identical protocols as described above.

[2] = tested on: GLI1 mRNA expression; test: RT-qPCR GLI1 mRNA expression in Sufu-KO MEFs; type: cell-based, mouse
Description: as §1

[3] = tested on: GLI1 mRNA expression; test: RT-qPCR GLI1 mRNA expression in ASZ001 BCC cells; type: cell-based, mouse; settings: for reduction of GLI1 expression in ASZ001 (in words): concentrations up to 10 μM
Description: as §1

[4] = tested on: ASZ001 cells; test: MTS anti-proliferative assay in ASZ001 cells; type: cell-based, murine; settings: Mus musculus, ASZ001; Table 5, 48 h, Ave ± SEM
Description: Cell viability was assessed by MTS proliferation assay kit (Promega) per manufacturer's protocol. Briefly, 2×10^4 cells were plated in a 96-well plate in 100 μL growth medium to make the cell population at ˜80% confluence. After 24 h, 1 μL drug solution was added to each well. DMSO was used as vehicle compound. After 48 h incubation (37° C., 5% CO2), 20 μL of freshly prepared 3-(4,5-dimethylthiazol-2-yl)-5-(3-carboxymethoxyphenyl)-2-(4-sulfophenyl)-2H-tetrazolium (MTS)/phenazine methosulfate (PMS) solution was added to each well, and the plate was returned to the incubator for 1 h. Absorbance at 490 nm was recorded, and the result was analyzed by GraphPad Prism 5. GI50 values represent mean±SEM for at least two separate experiments performed in triplicate.

[5] = Table 2, mean ± SEM, read-out: GLI1 mRNA expression, IC50 C3H10T1/2
[6] = Table 2, mean ± SEM, read-out: GLI1 mRNA expression, IC50 Sufu-KO
[7] = Table 2, mean ± SEM, read-out: GLI1 mRNA expression, IC50 ASZ001
[8] = Table 4, racemates and enantiomers, mean ± SEM, read-out: RT-qPCR, IC50 C3H10T1/2
[9] = Table 4, racemates and enantiomers, mean ± SEM, read-out: RT-qPCR, IC50 Sufu-KO
[10] = Table 4, racemates and enantiomers, mean ± SEM, read-out: RT-qPCR, IC50 ASZ001
[11] = Mus musculus, Table 5, GLI1 mRNA, Ave ± SEM, read-out: RT-qPCR, IC50 Sufu-KO
[12] = Mus musculus, ASZ001, Table 5, GLI1 mRNA, Ave ± SEM, read-out: RT-qPCR, IC50 ASZ001

Row | IC50 [1, 5] [µM] | IC50 [2, 6] [µM] | IC50 [3, 7] [µM] | IC50 [2, 11] [µM] | IC50 [3, 12] [µM] | Structure (SMILES) | % Gli1 Expression ([1]; mean ± SEM) [%] | GI50 [4] [µM] | other results
1 | 0.76 ± 0.23 | 0.99 ± 0.32 | 5.8 ± 1.1 |  |  | COc1cccc(C(Nc2cc(C)ccn2)c2ccc3cccnc3c2O)c1C (racemic) [Compound 2] | 7.0 ± 1.4 |  | 
2 | 1.2 ± 0.4 | 0.31 ± 0.21 | 2.2 ± 0.9 |  |  | Cc1ccnc(NC(c2cc(C)ccc2C)c2ccc3cccnc3c2O)c1 (racemic) [Compound 3] | 10.0 ± 2.4 |  | IC50 [1, 8]: 1.2 ± 0.4 µM; IC50 [2, 9]: 0.31 ± 0.21 µM; IC50 [3, 10]: 2.2 ± 0.9 µM
3 | 1.8 ± 0.5 | 0.63 ± 0.2 | 7.1 ± 1.2 |  |  | COc1ccc(C(Nc2cc(C)ccn2)c2ccc3cccnc3c2O)cc1O (racemic) [Compound 5] | 6.1 ± 0.6 |  | 
4 | 3.1 ± 1.2 | 0.78 ± 0.16 | > 10 |  |  | CCOc1cc(C(Nc2cc(C)ccn2)c2ccc3cccnc3c2O)ccc1OC (racemic) [Compound 6] | 7.6 ± 0.9 |  | reduction of GLI1 expression in ASZ001 (in words) [3]: did not reduce GLI1 expression
5 | 0.57 ± 0.14 | 0.48 ± 0.22 | 2.8 ± 1.5 |  |  | Oc1c(C(Nc2ccccn2)c2ccc(Cl)c(Cl)c2)ccc2cccnc12 (racemic) [Compound 7] | 4.2 ± 0.9 |  | IC50 [1, 8]: 0.57 ± 0.14 µM; IC50 [2, 9]: 0.48 ± 0.22 µM; IC50 [3, 10]: 2.8 ± 1.5 µM
6 | 0.98 ± 0.47 | 1.3 ± 0.2 | 4.5 ± 2.6 |  |  | CSc1ccc(C(Nc2cc(C)ccn2)c2ccc3cccnc3c2O)cc1 (racemic) [Compound 8] | 4.1 ± 1.1 |  | 
7 | 0.62 ± 0.19 | 1.9 ± 0.6 | > 10 |  |  | Cc1ccccc1C(Nc1ccccn1)c1ccc2cccnc2c1O (racemic) [Compound 9] | 10.6 ± 1.9 |  | reduction of GLI1 expression in ASZ001 (in words) [3]: did not reduce GLI1 expression
8 | 0.21 ± 0.1 | 1.5 ± 0.4 | 8.4 ± 2 |  |  | Cc1ccnc(NC(c2cccc(Cl)c2Cl)c2ccc3cccnc3c2O)c1 (racemic) [Compound 10] | 18.2 ± 1.5 |  | IC50 [1, 8]: 0.21 ± 0.1 µM; IC50 [2, 9]: 1.5 ± 0.4 µM; IC50 [3, 10]: 8.4 ± 2 µM
9 | 0.39 ± 0.27 | 3.7 ± 1 | > 10 |  |  | Cc1ccc2ccc(C(Nc3ccccn3)c3ccc(Cl)c(Cl)c3)c(O)c2n1 (racemic) [Compound 11] | 16.6 ± 0.7 |  | reduction of GLI1 expression in ASZ001 (in words) [3]: did not reduce GLI1 expression
10 | 0.73 ± 0.07 | 1 ± 0.2 | 3.6 ± 1.5 |  |  | Oc1c(C(Nc2ccccn2)c2c(F)cccc2Cl)ccc2cccnc12 (racemic) [Compound 12] | 6.5 ± 0.8 |  | IC50 [1, 8]: 0.73 ± 0.07 µM; IC50 [2, 9]: 1 ± 0.2 µM; IC50 [3, 10]: 3.6 ± 1.5 µM
11 | 1 ± 0.3 | 1.7 ± 0.1 | 3.6 ± 1.1 |  |  | COc1ccc(C(Nc2ccccn2)c2ccc3cccnc3c2O)cc1[N+](=O)[O-] (racemic) [Compound 13] | 5.9 ± 0.3 |  | 
12 |  |  |  |  |  | CCOc1cccc(C(Nc2cc(C)ccn2)c2ccc3cccnc3c2O)c1OC (racemic) [s2] | 63.7 ± 7.2 |  | 
13 |  |  |  |  |  | CCOc1cccc(C(Nc2cc(C)ccn2)c2ccc3cccnc3c2O)c1C (racemic) [s3] | 59.1 ± 11.9 |  | 
14 |  |  |  |  |  | CCOc1cccc(C(Nc2ccccn2)c2ccc3ccc(C)nc3c2O)c1 (racemic) [s6] | 56.1 ± 2.1 |  | 
15 |  |  |  |  |  | CCOc1ccc(C(Nc2ccccn2)c2ccc3ccc(C)nc3c2O)cc1OC (racemic) [s7] | >100 |  | 
16 |  |  |  |  |  | CCc1ccc(C(Nc2cc(C)ccn2)c2ccc3cccnc3c2O)cc1 (racemic) [s10] | 79.4 ± 8.1 |  | 
17 |  |  |  |  |  | COc1ccc(C(Nc2ccccn2)c2ccc3ccc(C)nc3c2O)cc1C (racemic) [s11] | 62.1 ± 6.4 |  | 

Row | IC50 [1, 5] [µM] | IC50 [2, 6] [µM] | IC50 [3, 7] [µM] | IC50 [2, 11] [µM] | IC50 [3, 12] [µM] | Structure (SMILES) | % Gli1 Expression ([1]; mean ± SEM) [%] | GI50 [4] [µM] | other results
18 |  |  |  |  |  | Cc1ccc2ccc(C(Nc3ccccn3)c3ccccc3Cl)c(O)c2n1 (racemic) [s12] | 23.6 ± 2.8 |  | 
19 |  |  |  |  |  | Cc1ccc2ccc(C(Nc3ccccn3)c3ccccc3F)c(O)c2n1 (racemic) [s14] | 78.9 ± 17.6 |  | 
20 |  |  |  |  |  | CCOc1ccc(C(Nc2ccccn2)c2ccc3ccc(C)nc3c2O)cc1 (racemic) [s16] | 86.8 ± 5.7 |  | 
21 |  |  |  |  |  | COc1ccc(C(Nc2ccccn2)c2ccc3ccc(C)nc3c2O)cc1 (racemic) [s18] | >100 |  | 
22 |  |  |  |  |  | COc1ccc(I)cc1C(Nc1cc(C)ccn1)c1ccc2cccnc2c1O (racemic) [s19] | >100 |  | 
23 |  |  |  | 0.98 ± 0.21 | 1.6 ± 0.7 | CCN(CC)c1ccc(C(Nc2ccccn2)c2cc(C)c3ccc(C)nc3c2O)cc1 (centres unmarked) [Compound 16, 7-((4-Diethylaminophenyl)(pyridin-2-ylamino)methyl)-2,5-dimethylquinolin-8-ol] |  | 15.7 ± 2.8 | 
24 |  |  |  | > 25 | 9.9 ± 1.4 | CCN(CC)c1ccc(C(Nc2ccccn2)c2ccc3ccccc3c2O)cc1 (centres unmarked) [Compound 17, 2-((4-Diethylaminophenyl)(pyridin-2-ylamino)methyl)naphthalen-1-ol] |  | > 100 | 
25 |  |  |  | > 25 | 14.6 ± 1.4 | CCN(CC)c1ccc(C(Nc2ccccn2)c2c(O)ccc3cccnc23)cc1 (centres unmarked) [Compound 19, 8-((4-Diethylaminophenyl)(pyridin-2-ylamino)methyl)quinolin-7-ol] |  | > 100 | 
26 |  |  |  | > 25 | 0.84 ± 0.06 | CCN(CC)c1ccc(C(Nc2ccccn2)c2ccc3ccc(C)nc3c2OC(C)C)cc1 (centres unmarked) [Compound 21, N-((4-Diethylaminophenyl)(8-isopropoxy-2-methylquinolin-7-yl)methyl)pyridin-2-amine] |  | > 100 | 
27 |  |  |  | > 25 | 1.9 ± 0.5 | C#CCCOc1c(C(Nc2ccccn2)c2ccc(N(CC)CC)cc2)ccc2ccc(C)nc12 (centres unmarked) [Compound 23, N-((4-Diethylaminophenyl)(8-(but-3-yn-1-yloxy)-2-methylquinolin-7-yl)methyl)pyridin-2-amine] |  | > 100 | 
28 |  |  |  | > 25 | 1.7 ± 0.3 | CCN(CC)c1ccc(C(Nc2ccccn2)c2ccc3ccc(C)nc3c2OCc2ccccc2)cc1 (centres unmarked) [Compound 24, N-((4-Diethylaminophenyl)(8-benzyloxy-2-methylquinolin-7-yl)methyl)pyridin-2-amine] |  | > 100 | 
29 |  |  |  | > 25 | 1.3 ± 0.4 | CCN(CC)c1ccc(C(Nc2ccccn2)c2ccc3ccc(C)nc3c2OCc2cccc(OC)c2)cc1 (centres unmarked) [Compound 25, N-((4-Diethylaminophenyl)(8-(3-methoxybenzyloxy)-2-methylquinolin-7-yl)methyl)pyridin-2-amine] |  | > 100 | 
30 |  |  |  | > 25 | 1.2 ± 0.5 | CCN(CC)c1ccc(C(Nc2ccccn2)c2ccc3ccc(C)nc3c2OCc2ccc(OC)cc2)cc1 (centres unmarked) [Compound 26, N-((4-Diethylaminophenyl)(8-(4-methoxybenzyloxy)-2-methylquinolin-7-yl)methyl)pyridin-2-amine] |  | > 100 | 
31 |  |  |  | > 25 | 6.9 ± 1.1 | CCN(CC)c1ccc(C2c3ccc4ccc(C)nc4c3OC(=O)N2c2ccccn2)cc1 (centres unmarked) [Compound 27, 4-(4-Diethylaminophenyl)-9-methyl-3-(pyridin-2-yl)-3,4-dihydro-2H-[1,3]oxazino[5,6-h]quinolin-2-one] |  | > 100 | 
32 |  |  |  | 2.1 ± 0.6 | 7.2 ± 1.1 | CCN(CC)c1ccc(C(C)(Nc2ccccn2)c2ccc3ccc(C)nc3c2O)cc1 (centres unmarked) [Compound 28, 7-(1-(4-(Diethylamino)phenyl)-1-(pyridin-2-ylamino)ethyl)-2-methylquinolin-8-ol] |  | 25.1 ± 4.2 | 
33 |  |  |  |  |  | Cc1ccc(NC(c2cccc(C)n2)c2ccc3cccnc3c2O)nc1 (centres unmarked) [s25] | >100 |  | 
